Assay results from US11834663B2, “Fibrotic treatment” (Monash University, priority 2015, dated 2023).

What was measured:
[1] = system: kidneys of aged (18-22 month old) WT mice; test: Reversal of age-induced kidney fibrosis in aged WT mice; assay type: in vivo, mouse
Experimental: There are 8 different sets of in vivo experiments in this study: • A) Phenotypic characterisation of the heart and blood vessels in global IRAP knockout mice and their WT controls treated for 4 weeks with Angiotensin (Ang) II (800 ng/kg/min; s.c.) where mouse hearts and blood vessels were compared to tissue obtained from young WT and IRAP^−/− mice treated with saline. • B) Prevention of Ang II-induced changes in the cardiovascular system following IRAP inhibitor treatment. In the prevention model, WT mice were treated with Ang II (800 ng/kg/min; s.c.)±the IRAP inhibitor (HFI-419; 500 ng/kg/min for 28 days) or HFI-vehicle (1 DMSO:3 HBC). • C) Phenotypic characterisation of the aged heart, kidney and blood vessels in the global IRAP knockout mice where aged WT and IRAP^−/− mouse hearts, kidneys and blood vessels were compared to tissue obtained from young WT and IRAP^−/− mice. • D) Reversal of the age-induced changes in the cardiovascular system following IRAP inhibitor treatment. […]
To measure collagen deposition, frozen sections of heart, kidney or aorta (all 5 μm thickness) were air dried for 10 minutes and were brought through 3 times xylene (2 minutes each), and 3 times absolute alcohol washes before being rinsed in tap H2O for 30 seconds. […] Images were taken under ×20 magnification, using bright field (Olympus, BX51) and circularized polarized light microscopy (DM IRB, Leica) while percentage of positive interstitial collagen staining per total field of view was quantified using ImageJ 1.46 software (Java, NIH), and averaged out from a total of eight views as the final percentage collagen content in a particular animal. […]

[2] = system: hearts of aged (18-22 month old) WT mice; test: Reversal of age-induced cardiac fibrosis and inflammation in aged WT mice (histology, immunofluorescence, western blot); assay type: in vivo, mouse
Experimental: There are 8 different sets of in vivo experiments in this study: • A) Phenotypic characterisation of the heart and blood vessels in global IRAP knockout mice and their WT controls treated for 4 weeks with Angiotensin (Ang) II (800 ng/kg/min; s.c.) where mouse hearts and blood vessels were compared to tissue obtained from young WT and IRAP^−/− mice treated with saline. • B) Prevention of Ang II-induced changes in the cardiovascular system following IRAP inhibitor treatment. In the prevention model, WT mice were treated with Ang II (800 ng/kg/min; s.c.)±the IRAP inhibitor (HFI-419; 500 ng/kg/min for 28 days) or HFI-vehicle (1 DMSO:3 HBC). • C) Phenotypic characterisation of the aged heart, kidney and blood vessels in the global IRAP knockout mice where aged WT and IRAP^−/− mouse hearts, kidneys and blood vessels were compared to tissue obtained from young WT and IRAP^−/− mice. • D) Reversal of the age-induced changes in the cardiovascular system following IRAP inhibitor treatment. In the reversal model, aged WT mice were treated with either saline, IRAP inhibitor (HFI-419 at 500 ng/kg/min; compound 1 at 500 ng/kg/min; compound 2 at 50 ng/kg/min) or HFI-vehicle (1 DMSO: 3 HBC) for 4 weeks. • E) Prevention of ischemic-reperfusion injury in isolated hearts taken from aged global IRAP knockout mice and aged IRAP inhibitor (HFI-419 at 500 ng/kg/min; s.c.) treated WT mice compared to age-matched vehicle-treated (1 DMSO:3 HBC; s.c.) WT controls. • F) Phenotypic characterization of cardiac function using echocardiography in the aged global IRAP knockout mice compared to aged and young WT mice. • G) Phenotypic characterization of liver steatosis in IRAP knockout mice in a high fat diet (HFD) model. • H) Reversal of the salt-induced fibrosis in the liver following IRAP inhibitor treatment.
All mice which underwent surgery were anaesthetized with Isoflurane (Isorrane) (5% induction and 2.5% maintenance) and an incision made in the midscapular region through which osmotic minipumps (Alzet model 2004, Alza Corp) were inserted for subcutaneous drug administration. The incision area was sutured with 6/0 DY silk (Dynek Pty Ltd) and antibiotic powder applied (Cicatrin, Pfizer) followed by intramuscular injection of the analgesic Cartrophen (0.1 ml of a 1.5 mg/ml stock solution; Biopharm Australia). Systolic blood pressure (SBP) was measured fortnightly using non-invasive tail-cuff plethysmography apparatus (MC4000 Blood Pressure Analysis System, Hatteras Instrument Inc) before drug treatment (week 0), at week 2 of treatment and end of treatment (week 4). At the end of drug treatment, body weight of mice was recorded. Mice were anaesthetized using Isoflurane inhalation and killed by cervical dislocation. Organs (heart, aorta, kidneys, brain, blood and tibia) were collected, with heart and aorta being dissected appropriately as described below. All organs were then snap frozen in liquid nitrogen, and stored at −80° C. if they were not used for vascular reactivity studies conducted on the day mice were killed.
To measure collagen deposition, frozen sections of heart, kidney or aorta (all 5 μm thickness) were air dried for 10 minutes and were brought through 3 times xylene (2 minutes each), and 3 times absolute alcohol washes before being rinsed in tap H2O for 30 seconds. Staining with an optimal concentration of picrosirius red (in this instance 0.05% picrosirius red diluted in saturated picric acid) was performed and left for an hour. Sections were then rinsed in water and differentiated in 0.01 M HCl for 2 minutes, followed by dehydration via 3 times absolute alcohol washes. Then, slides were brought through 3 times xylene washes before being cover slipped according to standard histological techniques using DPX as the mounting medium. […]

[3] = aged WT mice, HFI-419 4 weeks, FIG. 13
[4] = aged WT mice, HFI-419 4 weeks, FIG. 17
[5] = aged WT mice, HFI-419 4 weeks, FIG. 18

CCOC(=O)C1=C(NC(C)=O)Oc2cc(O)ccc2C1c1cccnc1 (stereo not drawn) [HFI-419]
IRAP expression in kidneys ([1]; aged WT mice, HFI-419 500 ng/kg/min s.c., 4 weeks, FIG. 22b): tended to be decreased
αSMA-positive myofibroblast expression in kidneys ([1]; aged WT mice, HFI-419 4 weeks vs vehicle, FIG. 24b): trend towards reduced
age-induced collagen deposition in kidney (interstitial fibrosis, picrosirius red) ([1]; ~20 month old WT mice, HFI-419 500 ng/kg/min s.c., 4 weeks, FIG. 23): completely reverse
ICAM-1 expression in heart [2, 3]: reduced
MCP-1 expression in heart [2, 3]: reduced
NFκB activation in heart (phospho-IκBα) [2, 3]: diminished
macrophage expression in heart [2, 3]: reduced
superoxide production in heart (DHE) [2, 3]: diminished
MMP-2 protein level in heart [2, 4]: no change
MMP-8 protein expression in heart [2, 4]: trend towards increased
MMP-9 protein level in heart [2, 4]: no change
MMP-13 protein level in heart [2, 4]: no change
TIMP-1 protein levels in heart [2, 4]: significantly decreased
precursor and mature forms of collagen α1 Type I in heart (western blot) [2, 4]: markedly reduced
TGF-β1 expression in heart [2, 5]: downregulation
synthetic myofibroblasts (α-SMA) in heart [2, 5]: downregulation
IRAP expression in heart ([2]; ~20 month old WT mice, HFI-419 500 ng/kg/min s.c., 4 weeks, FIG. 8c): significantly decreased
age-induced cardiac collagen deposition (picrosirius red) ([2]; ~20 month old WT mice, HFI-419 500 ng/kg/min s.c., 4 weeks, FIGS. 15, 16): reversed age-induced collagen deposition to the same level seen in young adult mice
